# Values quoted from earlier work, collected in patent US10232018B2, “ACTH for treatment of acute respiratory distress syndrome” (MALLINCKRODT ARD IP LIMITED, priority 2013, dated 2019).
# What was measured:
# [1] = Baumann and Felber, 1976
substance,measurement,setting,value
"ACTH1-23: ACTH fragment 1-23, partial agonist in Hofmann et al. (1970) (SYSMEHFRWGKPVGKKRRPVKVY; Corticotropin; UniProt P01189 138-160, looked up, fragment)",partial agonist activity in adrenal stimulation assays in comparison to ACTH1-24 as control,adrenal stimulation,91%
"human 1-39: human ACTH 1-39 (SYSMEHFRWGKPVGKKRRPVKVYPNGAEDESAEAFPLEF; Corticotropin; UniProt P01189 138-176, looked up)",duration of action compared with 1-24,[1],longer duration of action
